The source of these data is patent US9265773B2, “Tetracyclic heterocycle compounds and methods of use thereof for the treatment of viral diseases” (priority 2011, dated 2016).

One experiment relates to HCV replicon genotype 1b. The experiment is described as follows: microbe, parasite or virus in culture. As to conditions: genotype 1b replicon cells, incubated 96 hours, NS3/4A ELISA readout. Type of experiment: cell-based.
The subject of another experiment is HCV replicon genotype 1a. The experiment is described as follows: microbe, parasite or virus in culture. Type of experiment: cell-based. The conditions noted are these: genotype 1a replicon cells, incubated 96 hours, NS3/4A ELISA readout. In general terms: Replicon systems follow genome replication, usually without infectious particles.

With `CNC(=O)c1c(-c2ccc(F)cc2)oc2cc(N(C)S(C)(=O)=O)c(-c3ccc4c(c3)-c3cc5ccccc5n3CC(O)CO4)cc12` (stereo not drawn) [Compound 75, 2-(4-fluorophenyl)-5-(7-hydroxy-7,8-dihydro-6H-benzo[2,3][1,5]oxazocino[5,4-a]indol-2-yl)-N-methyl-6-(N-methylmethylsulfonamido)benzofuran-3-carboxamide], the half-inhibitory concentration (IC50) in the experiment on HCV replicon genotype 1b (Hepatitis C virus, 96 h) turned out to be 2.6 nM; with HCV replicon genotype 1a (Hepatitis C virus, 96 h) it was 2.8 nM.
Turning to `CNC(=O)c1c(-c2ccc(F)cc2)oc2cc(N(C)S(C)(=O)=O)c(-c3ccc4c(n3)-c3cc5c(F)cccc5n3C(C(=O)O)O4)cc12` (stereo not drawn) [Compound 112], the IC50 in the experiment with HCV replicon genotype 1b (Hepatitis C virus, 96 h) is 23 nM; in the experiment on HCV replicon genotype 1a (Hepatitis C virus, 96 h), 20 nM.
Taken in the same sequence, the figures for `CNC(=O)c1c(-c2ccc(F)cc2)oc2cc(N(CCCF)S(C)(=O)=O)c(-c3ncc4c(n3)-c3cc5ccccc5n3CO4)cc12` [Compound 197] were 4.4 nM and 2.6 nM.
Consider `CNC(=O)c1c(-c2ccc(F)cc2)oc2cc(N(C)S(C)(=O)=O)c(-c3ccc4c(n3)-c3cc5c(F)cccc5n3C(COC)O4)cc12` (stereo not drawn) [Compound 96], for which the IC50 came out at 5.1 nM with HCV replicon genotype 1b and 4.1 nM in the experiment with HCV replicon genotype 1a.
On to `CNC(=O)c1c(-c2ccc(F)cc2)oc2cc(N(C)S(C)(=O)=O)c(-c3ccc4c(n3)-c3cc5ncccc5n3CO4)cc12` [Compound 44], for which the IC50 in the experiment on HCV replicon genotype 1b (Hepatitis C virus, 96 h) amounted to 2.4 nM; with HCV replicon genotype 1a (Hepatitis C virus, 96 h) it was 2.8 nM.
The like results for `CNC(=O)c1c(-c2ccc(F)cc2)oc2cc(-c3ccoc3)c(-c3ccc4c(n3)-c3cc5c(F)cccc5n3CO4)cc12` [Compound 167] were, in that order, 17 nM and 21 nM.
Regarding `CNC(=O)c1c(-c2ccc(F)cc2)oc2cc(N(C)S(C)(=O)=O)c(-c3ccc4c(n3)-c3nn5ccccc5c3CO4)cc12` [Compound 146, 2-(4-fluorophenyl)-N-methyl-5-(1-aza-6H-chromeno[4′,3′:3,4]pyrazolo[1,5-a]pyridin-2-yl)-6-(N-methylmethylsulfonamido)benzofuran-3-carboxamide], the IC50 was 37 nM in the experiment on HCV replicon genotype 1b (Hepatitis C virus, 96 h) and 225 nM in the experiment on HCV replicon genotype 1a (Hepatitis C virus, 96 h).
Taken in the same sequence, the figures for `CNC(=O)c1c(-c2ccc(F)cc2)oc2cc(N(C)S(C)(=O)=O)c(-c3ccc4c(n3)-c3cc5c(F)cccc5n3C(CF)O4)cc12` (stereo not drawn) [Compound 98, 5-(11-fluoro-6-(fluoromethyl)-6H-pyrido[2′,3′:5,6][1,3]oxazino[3,4-a]indol-2-yl)-2-(4-fluorophenyl)-N-methyl-6-(N-methylmethylsulfonamido)benzofuran-3-carboxamide] were 6.3 nM and 3.9 nM.
For `CNC(=O)c1c(-c2ccc(F)cc2)oc2cc(N(C)S(C)(=O)=O)c(-c3ccc4c(n3)-c3cc5c(F)cccc5n3C(CO)O4)cc12` (stereo not drawn) [Compound 88, 5-(11-fluoro-6-(hydroxymethyl)-6H-pyrido[2′,3′:5,6][1,3]oxazino[3,4-a]indol-2-yl)-2-(4-fluorophenyl)-N-methyl-6-(N-methylmethylsulfonamido)benzofuran-3-carboxamide], the IC50 with HCV replicon genotype 1b came to 2.6 nM; with HCV replicon genotype 1a it was 2.7 nM.
`CCOC(=O)CNCC1Oc2ccc(-c3cc4c(C(=O)NC)c(-c5ccc(F)cc5)oc4cc3N(C)S(C)(=O)=O)nc2-c2cc3c(F)cccc3n21` (stereo not drawn) [Compound 119]: the IC50 came out at 5.1 nM with HCV replicon genotype 1b (Hepatitis C virus, 96 h) and 17 nM in the experiment with HCV replicon genotype 1a (Hepatitis C virus, 96 h).
Consider `CNC(=O)c1c(-c2ccc(F)cc2)oc2cc(N(C)S(C)(=O)=O)c(-c3cc4c(cn3)OCn3c-4nc4cccnc43)cc12` [Compound 138], for which the 50% inhibitory concentration (IC50) in the experiment with HCV replicon genotype 1b (Hepatitis C virus, 96 h) worked out at 19 nM; in the experiment on HCV replicon genotype 1a (Hepatitis C virus, 96 h), 62 nM.
For `CNC(=O)c1c(-c2ccc(F)cc2)oc2cc(N(C)S(C)(=O)=O)c(-c3cc4c(cn3)OCn3c-4cc4c(F)cccc43)cc12` [Compound 16], the half-maximal inhibitory concentration (IC50) came to 2.3 nM with HCV replicon genotype 1b (Hepatitis C virus, 96 h) and 2.1 nM with HCV replicon genotype 1a (Hepatitis C virus, 96 h).
The like results for `CNC(=O)c1c(-c2ccc(F)cc2)oc2cc(N(C)S(C)(=O)=O)c(-c3ccc4c(n3)-c3cc5cc(F)cc(F)c5n3CO4)cc12` [Compound 19] were, in that order, 21 nM and 19 nM.
The like results for `CN(c1cc2oc(-c3ccc(F)cc3)c(C(=O)NCCO)c2cc1-c1ccc2c(n1)-c1cc3c(F)cccc3n1CO2)S(C)(=O)=O` [Compound 151, 5-(11-fluoro-6H-pyrido[2′,3′:5,6][1,3]oxazino[3,4-a]indol-2-yl)-2-(4-fluorophenyl)-N-(2-hydroxyethyl)-6-(N-methylmethylsulfonamido)benzofuran-3-carboxamide] were, in that order, 5.9 nM and 4.3 nM.
The like results for `CCOC(=O)C(C)NCC1Oc2ccc(-c3cc4c(C(=O)NC)c(-c5ccc(F)cc5)oc4cc3N(C)S(C)(=O)=O)nc2-c2cc3c(F)cccc3n21` (stereo not drawn) [Compound 118] were, in that order, 4 nM and 19 nM.
As to `CNC(=O)c1c(-c2ccc(F)cc2)oc2cc(-c3ccnn3C)c(-c3ccc4c(n3)-c3cc5c(F)cccc5n3CO4)cc12` [Compound 165, 5-(11-fluoro-6H-pyrido[2′,3′:5,6][1,3]oxazino[3,4-a]indol-2-yl)-2-(4-fluorophenyl)-N-methyl-6-(1-methyl-1H-pyrazol-5-yl)benzofuran-3-carboxamide], the IC50 in the experiment with HCV replicon genotype 1b (Hepatitis C virus, 96 h) came to 9.7 nM; with HCV replicon genotype 1a (Hepatitis C virus, 96 h) it was 27 nM.
Regarding `CNC(=O)c1c(-c2ccc(F)cc2)oc2cc(N(C)S(C)(=O)=O)c(-c3ccc4c(c3)-c3cc5ccccc5n3CC(O)(C(F)(F)F)CO4)cc12` (stereo not drawn) [Compound 79, 2-(4-fluorophenyl)-5-(7-hydroxy-7-(trifluoromethyl)-7,8-dihydro-6H-benzo[2,3][1,5]oxazocino[5,4-a]indol-2-yl)-N-methyl-6-(N-methylmethylsulfonamido)benzofuran-3-carboxamide], the IC50 was determined as 11 nM in the experiment on HCV replicon genotype 1b (Hepatitis C virus, 96 h) and 10 nM with HCV replicon genotype 1a (Hepatitis C virus, 96 h).
Turning to `CNC(=O)c1c(-c2ccc(F)cc2)oc2cc(N(CCC3(O)CC3)S(C)(=O)=O)c(-c3ccc4c(n3)-c3cc5c(F)cccc5n3CO4)cc12` [Compound 204], the 50% inhibitory concentration (IC50) worked out at 19 nM in the experiment on HCV replicon genotype 1b (Hepatitis C virus, 96 h) and 8.1 nM in the experiment on HCV replicon genotype 1a (Hepatitis C virus, 96 h).
In the case of `CNC(=O)c1c(-c2ccc(F)cc2)oc2cc(N(C)S(C)(=O)=O)c(-c3ccc4c(n3)-c3cc5c(F)cncc5n3CO4)cc12` [Compound 46, 5-(11-fluoro-6H-pyrido[2,3-e]pyrido[4′,3′:4,5]pyrrolo[1,2-c][1,3]oxazin-2-yl)-2-(4-fluorophenyl)-N-methyl-6-(N-methylmethylsulfonamido)benzofuran-3-carboxamide], the half-maximal inhibitory concentration (IC50) with HCV replicon genotype 1b (Hepatitis C virus, 96 h) is 2.1 nM; in the experiment on HCV replicon genotype 1a (Hepatitis C virus, 96 h) it was 1.5 nM.
Turning to `CNC(=O)c1c(-c2ccc(F)cc2)oc2cc(N3CCCC3=O)c(-c3ccc4c(n3)-c3cc5c(F)cccc5n3CO4)cc12` [Compound 168, 5-(11-fluoro-6H-pyrido[2′,3′:5,6][1,3]oxazino[3,4-a]indol-2-yl)-2-(4-fluorophenyl)-N-methyl-6-(2-oxopyrrolidin-1-yl)benzofuran-3-carboxamide], the IC50 is 2.8 nM in the experiment on HCV replicon genotype 1b (Hepatitis C virus, 96 h) and 3.3 nM with HCV replicon genotype 1a (Hepatitis C virus, 96 h).
As for `CNC(=O)c1c(-c2ccc(F)cc2)oc2cc(N(C)S(C)(=O)=O)c(-c3ccc4c(n3)-c3cc5c(F)cccc5n3C3(COC3)O4)cc12` [Compound 97], the IC50 in the experiment on HCV replicon genotype 1b (Hepatitis C virus, 96 h) was 4.4 nM; in the experiment on HCV replicon genotype 1a (Hepatitis C virus, 96 h), 2.9 nM.
On to `CNC(=O)c1c(-c2ccc(F)cc2)oc2cc(N(C)S(C)(=O)=O)c(-c3ccc4c(n3)-c3nc5c(F)cccc5n3CO4)cc12` [Compound 139], for which the IC50 in the experiment on HCV replicon genotype 1b (Hepatitis C virus, 96 h) stood at 1.9 nM; in the experiment with HCV replicon genotype 1a (Hepatitis C virus, 96 h) it was 1.9 nM.
Consider `CNC(=O)c1c(-c2ccc(F)cc2)oc2cc(N(C)S(C)(=O)=O)c(-c3ccc4c(c3)-c3nc5ccccc5n3CO4)cc12` [Compound 133, 5-(6H-benzo[e]benzo[4,5]imidazo[1,2-c][1,3]oxazin-2-yl)-2-(4-fluorophenyl)-N-methyl-6-(N-methylmethylsulfonamido)benzofuran-3-carboxamide], for which the IC50 in the experiment with HCV replicon genotype 1b (Hepatitis C virus, 96 h) came to 3.2 nM; with HCV replicon genotype 1a (Hepatitis C virus, 96 h), 2.6 nM.
Taken in the same sequence, the figures for `CCOC(=O)C1Oc2ccc(-c3cc4c(C(=O)NC)c(-c5ccc(F)cc5)oc4cc3N(C)S(C)(=O)=O)nc2-c2cc3c(F)cccc3n21` (stereo not drawn) [Compound 113] were 29 nM and 32 nM.
Take `CNC(=O)c1c(-c2ccc(F)cc2)oc2cc(N(C)S(C)(=O)=O)c(-c3ccc4c(n3)-c3cc5c(F)cccc5n3C(C(=O)NC)O4)cc12` (stereo not drawn) [Compound 110]: the IC50 in the experiment with HCV replicon genotype 1b is 4.8 nM; in the experiment with HCV replicon genotype 1a, 3 nM.
Take `CNC(=O)c1c(-c2ccc(F)cc2)oc2cc(N(C)S(C)(=O)=O)c(-c3ccc4c(c3)-c3c(Cl)c5ccccc5n3C(C3CC3)O4)cc12` (stereo not drawn) [Compound 131, 5-(12-chloro-6-cyclopropyl-6H-benzo[5,6][1,3]oxazino[3,4-a]indol-2-yl)-2-(4-fluorophenyl)-N-methyl-6-(N-methylmethylsulfonamido)benzofuran-3-carboxamide]: the IC50 stood at 50 nM in the experiment on HCV replicon genotype 1b (Hepatitis C virus, 96 h) and 79 nM in the experiment on HCV replicon genotype 1a (Hepatitis C virus, 96 h).
Taken in the same sequence, the figures for `CNC(=O)c1c(-c2ccc(F)cc2)oc2cc(N(C)S(C)(=O)=O)c(-c3ccc4oc(=O)n5c6ccccc6cc5c4c3)cc12` [Compound 53, 2-(4-fluorophenyl)-N-methyl-6-(N-methylmethylsulfonamido)-5-(6-oxo-6H-benzo[5,6][1,3]oxazino[3,4-a]indol-2-yl)benzofuran-3-carboxamide] were 7.9 nM and 8 nM.
The like results for `CNC(=O)c1c(-c2ccc(F)cc2)oc2cc(N(C)S(C)(=O)=O)c(-c3ccc4c(c3)-c3cc5ccccc5n3C(C3CC3)O4)cc12` (stereo not drawn) [Compound 132] were, in that order, 7.9 nM and 4.8 nM.
Taken in the same sequence, the figures for `CNC(=O)c1c(-c2ccc(F)cc2)oc2cc(N(C)S(C)(=O)=O)c(-c3ccc4c(c3)-c3cc5ccccc5n3CC(F)CO4)cc12` (stereo not drawn) [Compound 76, 5-(7-fluoro-7,8-dihydro-6H-benzo[2,3][1,5]oxazocino[5,4-a]indol-2-yl)-2-(4-fluorophenyl)-N-methyl-6-(N-methylmethylsulfonamido)benzofuran-3-carboxamide] were 5.8 nM and 4.5 nM.
As for `CNC(=O)c1c(-c2ccc(F)cc2)oc2cc(C(N)=O)c(-c3ccc4c(n3)-c3cc5c(F)cccc5n3CO4)cc12` [Compound 183, 5-(11-fluoro-6H-pyrido[2′,3′:5,6][1,3]oxazino[3,4-a]indol-2-yl)-2-(4-fluorophenyl)-N3-methylbenzofuran-3,6-dicarboxamide], the IC50 in the experiment on HCV replicon genotype 1b (Hepatitis C virus, 96 h) amounted to 7.1 nM; with HCV replicon genotype 1a (Hepatitis C virus, 96 h) it was 2 nM.

Broadly, the IC50 is the point on the concentration scale where inhibition reaches its midpoint.
